According to the supplement of paper PMC10307832:

Key:
Test in all cases: relative viability (nuclei count vs DMSO), 5 days (fraction); higher = more cells survive
[1] = compound: CN(c1ncccc1CNc1nc(Nc2ccc3c(c2)CC(=O)N3)ncc1C(F)(F)F)S(C)(=O)=O + CS(=O)(=O)N1CCN(Cc2cc3nc(-c4cccc5[nH]ncc45)nc(N4CCOCC4)c3s2)CC1 [Pictilisib] (partner 1 µM)
How it was run: (§1)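 Five library-drug doses in √10 steps were combined with a fixed anchor-drug dose, or a single drug was given alone, by pin tool to lung cancer cell lines in 1536-well plates the day after seeding. Nuclei were stained and counted after 5 days. Relative viability is the nuclei count in treated wells over that in vehicle wells, taken as the median of duplicate plates.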

[2] = compound: CN(c1ncccc1CNc1nc(Nc2ccc3c(c2)CC(=O)N3)ncc1C(F)(F)F)S(C)(=O)=O + O=C(CCCCCCC(=O)Nc1ccccc1)NO [Vorinostat] (partner 1 µM)
How it was run: as §1

[3] = compound: CN(c1ncccc1CNc1nc(Nc2ccc3c(c2)CC(=O)N3)ncc1C(F)(F)F)S(C)(=O)=O + Cc1nc(Nc2ncc(C(=O)Nc3c(C)cccc3Cl)s2)cc(N2CCN(CCO)CC2)n1 [Dasatinib] (partner 0.075 µM)
How it was run: as §1

[4] = compound: CN(c1ncccc1CNc1nc(Nc2ccc3c(c2)CC(=O)N3)ncc1C(F)(F)F)S(C)(=O)=O + C[C@@H](Oc1cc(-c2cnn(C3CCNCC3)c2)cnc1N)c1c(Cl)ccc(F)c1Cl [Crizotinib] (partner 1 µM)
How it was run: as §1

Row | Cell Line | relative viability ([1]; first compound 0.01 µM) | relative viability ([1]; first compound 0.03162 µM) | relative viability ([1]; first compound 0.1 µM) | relative viability ([1]; first compound 0.3162 µM) | relative viability ([1]; first compound 1 µM) | relative viability ([2]; first compound 0.01 µM) | relative viability ([2]; first compound 0.03162 µM) | relative viability ([2]; first compound 0.1 µM) | relative viability ([2]; first compound 0.3162 µM) | relative viability ([2]; first compound 1 µM) | relative viability ([3]; first compound 0.01 µM) | relative viability ([3]; first compound 0.03162 µM) | relative viability ([3]; first compound 0.1 µM) | relative viability ([3]; first compound 0.3162 µM) | relative viability ([3]; first compound 1 µM) | relative viability ([4]; first compound 0.01 µM) | relative viability ([4]; first compound 0.03162 µM) | relative viability ([4]; first compound 0.1 µM) | relative viability ([4]; first compound 0.3162 µM) | relative viability ([4]; first compound 1 µM)
1 | NCI-H3122 | 0.599 | 0.673 | 0.627 | 0.572 | 0.584 | 1.03 | 0.963 | 1.04 | 1 | 1.06 | 0.802 | 1.02 | 0.787 | 0.746 | 0.764 | 0.283 | 0.289 | 0.283 | 0.278 | 0.241
2 | PC-3 [JPC-3] | 0.747 | 0.723 | 0.75 | 0.782 | 0.71 | 0.826 |  | 0.775 | 0.795 | 0.753 | 0.988 | 0.949 | 0.892 | 0.911 | 0.953 | 0.968 | 0.992 | 1.02 | 0.927 | 0.841
3 | PC-14 | 0.829 | 0.872 | 0.716 | 0.66 | 0.533 | 0.75 | 0.764 | 0.692 | 0.811 | 0.653 | 0.211 | 0.191 | 0.14 | 0.211 | 0.158 | 0.874 | 0.858 | 1.04 | 0.872 | 0.765
4 | RERF-LC-KJ | 0.494 | 0.577 | 0.551 | 0.548 | 0.622 | 0.643 | 0.78 | 0.692 | 0.728 | 0.603 | 0.767 | 0.809 | 0.708 | 0.723 | 0.743 | 0.841 | 0.823 | 0.85 | 0.779 | 0.86
5 | SK-LU-1 | 0.519 | 0.53 | 0.473 | 0.554 | 0.423 | 0.6 | 0.693 | 0.722 | 0.711 | 0.594 | 0.198 | 0.176 | 0.157 | 0.162 | 0.124 | 0.944 | 0.882 | 0.858 | 0.808 | 0.784
6 | SK-MES-1 | 0.401 | 0.322 | 0.293 | 0.311 | 0.367 | 1.1 | 1.13 | 1.09 | 1.08 | 0.951 | 0.236 | 0.262 | 0.132 | 0.171 | 0.163 | 0.943 | 0.989 | 0.944 | 0.983 | 0.846
7 | SW 1573 | 0.584 | 0.52 | 0.422 | 0.573 | 0.454 | 0.832 | 1.11 | 0.696 | 0.992 | 0.588 | 0.428 | 0.453 | 0.406 | 0.383 | 0.273 | 0.874 | 0.732 | 0.777 | 0.843 | 0.78
8 | UMC-11 | 0.759 | 0.843 | 0.793 | 0.847 | 0.708 | 0.417 | 0.363 | 0.314 | 0.331 | 0.229 | 0.449 | 0.531 | 0.41 | 0.426 | 0.379 | 0.59 | 0.584 | 0.654 | 0.476 | 0.298
